According to US9618507B2, “Methods of treating rheumatoid arthritis” (Betanien Hospital, priority 2014, dated 2017):
Where a SMILES comes first, the peptide text is derived from it. [ ]: non-standard residue; d: D form. dPhe(4-Cl) = N[C@H](Cc1ccc(Cl)cc1)C(=O)O; d2Nal = N[C@H](Cc1ccc2ccccc2c1)C(=O)O; dCit = NC(=O)NCCC[C@@H](N)C(=O)O; d3Pal = N[C@H](Cc1cccnc1)C(=O)O

Assays:
CRP, ESR = details: all patients
Experimental: Ethical committee approval was obtained. A blinded independent committee, the Oslo University Hospital Data Monitoring Committee, regularly reviewed source documents against case record forms. Safety and efficacy visits, with blood sampling, were between 0730 and 0930 h on days 1 (baseline), 2, 3, 4, 5 (visit 5a), 10, and 15. There was an additional visit (visit 5b) between 1930 and 2130 h when maximum GnRH suppression was anticipated. Using computer-generated allocation, patients were randomly assigned 1:1 to cetrorelix (5 mg/day s.c. on days 1 and 2, 3 mg/day on days 3-5) or corresponding volumes of placebo. The cetrorelix doses were chosen to achieve rapid reductions in GnRH, LH, a surrogate marker for GnRH, and FSH. TNF-α was measured using multiplex technology with a high sensitivity (0.5 pg/mL) assay.
The predefined primary end-point was the baseline adjusted between-group difference in DAS28-CRP by visit 5b. Predefined secondary end-points included the baseline adjusted between-group difference inTNF-α, ACR20/50/70 responses, European League Against Rheumatism (EULAR) responses, DAS28-CRP <2.6 and ≦3.2, and adverse events. Continuous end-points were assessed with regression using day 5 as the response variable, and treatment and baseline measurement as covariates (ANCOVA). No adjustments for multiple analyses were made because of the highly correlated variables. Statistical tests were twosided (α ¼0.05) using Stat12/StatXact9, and performed by an offsite statistician who received the locked database from the blinded investigators, and the allocation key from the offsite central office.

interleukin-2 = experiment: Example 2: serum cytokine, multiplex high-sensitivity assay, interleukin-2; type: in vivo, human; details: high gonadotropin patients
Experimental: The protocol-specified primary and secondary intention-to-treat endpoints of the original AGRA trial were analyzed in these post hoc analyses. The primary endpoint was the baseline-adjusted between-group difference in DAS28-CRP (Wells et al., supra) by day 5b. Secondary endpoints included the baseline-adjusted between-group difference in cytokines, proportions of patients achieving at least a 20%, 50%, and 70% improvement on the ACR scale (Felson D T, et al., Arthritis Rheum 1995; 38:727-35), categorical DAS28-CRP (European League Against […] [EULAR]) responses (Wells et al., supra; van Gestel A M, et al., Arthritis Rheum 1996; 39:34-40), DAS28-CRP≦3.2 (Wells et al., supra), DAS28-CRP<2.6 (Wells et al., supra), and the incidence of adverse events. Protocol-specified DAS28 outcomes were preferentially CRP-based rather than erythrocyte sedimentation rate (ESR)-based, as CRP usually changes before ESR. […] Multiplex technology (Luminex Inc., Austin, Tex.) measured these serum cytokines using high-sensitivity assays (sensitivities <0.5 pg/mL, allowing the detection of very low concentrations of cytokines) and identical lots of critical reagent of negligible cross-reactivity <2%, according to manufacturers' instructions (Bio-Rad, Hercules, Calif.). […] To enable intention-to-treat analyses with all patients N=53, non-detectable values were set at the lower limit of detection for cytokines, as is common for CRP values.
The original power calculation is previously reported (Kass A S, et al., Scand J Rheumatol Epub ahead of print 1 Nov. 2013). Baseline-adjusted between-group differences for all continuous endpoints were assessed with the use of analysis-of-covariance using outcome measurements at predefined time points as response variables, and treatment and baseline measurements as covariates. Dichotomous endpoints were compared with the Pearson chi-square test or Suissa-Shuster exact unconditional test, depending on expected-value distribution (Lydersen S, et al., Stat Med 2009; 28:1159-75). No adjustments for multiple analyses were made, owing to highly correlated endpoints. Due to skewed distributions, between-group changes of natural log-transformed cytokine levels from baseline were compared.

GnRH receptors = target: T1, GnRH receptors (Rattus norvegicus, UniProt P30969); details: rats; Rick F G, et al., Prostate 2011; cited from earlier work
T1 construct: through GnRH receptors in rats; host or cells: rats (in vivo)
T1 sequence (P30969 1-327): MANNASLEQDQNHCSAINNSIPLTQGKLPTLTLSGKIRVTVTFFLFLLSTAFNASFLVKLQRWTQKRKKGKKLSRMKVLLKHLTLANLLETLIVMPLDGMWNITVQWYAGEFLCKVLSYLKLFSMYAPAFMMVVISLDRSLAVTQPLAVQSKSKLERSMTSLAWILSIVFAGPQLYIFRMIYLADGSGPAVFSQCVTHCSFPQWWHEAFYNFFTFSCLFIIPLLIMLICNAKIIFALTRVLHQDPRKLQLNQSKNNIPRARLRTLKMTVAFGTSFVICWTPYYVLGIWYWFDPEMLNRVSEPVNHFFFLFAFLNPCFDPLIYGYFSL

CC(=O)N[C@H](Cc1ccc2ccccc2c1)C(=O)N[C@H](Cc1ccc(Cl)cc1)C(=O)N[C@H](Cc1cccnc1)C(=O)N[C@@H](CO)C(=O)N[C@@H](Cc1ccc(O)cc1)C(=O)N[C@H](CCCNC(N)=O)C(=O)N[C@@H](CC(C)C)C(=O)N[C@@H](CCCNC(=N)N)C(=O)N1CCC[C@H]1C(=O)N[C@H](C)C(N)=O [cetrorelix] (Ac-[d2Nal][dPhe(4-Cl)][d3Pal]SY[dCit]LRP[dA]-NH2)
CRP levels after withdrawal of treatment (CRP, ESR; by day 15): remained lowered | CRP reduction compared to placebo (CRP, ESR; day 5, p 0.060): Non-significant reductions | ESR reduction compared to placebo (CRP, ESR; day 15, p 0.051): Non-significant reductions | IL-2 level, Final Day 15 (interleukin-2; N = 27, mean ± SD): −3.39 ± 2.9 log pg/mL | IL-2 Change from baseline by day 15 (interleukin-2; N = 27, placebo +0.02): −0.42 log pg/mL | interleukin-2 change compared with placebo (interleukin-2; by day 15, P=0.088): decreased non-significantly | IL-2 Baseline-Adjusted Between-Group Difference (interleukin-2; day 15, 95% CI (−1.09, 0.08)): -0.51 log pg/mL | pro-inflammatory cytokine gene expression through GnRH receptors (GnRH receptors): directly decrease
